Experiments:
[1] = system: porcine coronary arteries; assay: Porcine coronary artery vascular tone and bradykinin relaxation
Description: Freshly isolated porcine coronary arteries were studied by the methods described above for rat aorta.
The effect of pre-treatment with a single dose of amyloid protein on relaxation induced by increasing concentrations of the vasodilator bradykinin is shown in FIG. 23. […] was preconstricted with a single dose of the vasoconstrictor U46619.

rat coronary arteries = assay: Rat coronary artery constriction and relaxation (U46619, acetylcholine); details: single dose 10^-6 M; preconstricted with 10^-7 M U46619
Description: The effects of β-amyloid peptide were examined on samples of rat coronary arteries prepared as described above. Referring specifically to FIG. 1, rat coronary arteries were treated with β-amyloid peptide (Aβ40) causing constriction of the coronary arteries.
FIG. 3 illustrates the effect of various amyloid fragments on the constriction of rat coronary arteries. Following control constriction with 10^-7 M U46619, the tissue samples were rinsed, equilibrated with buffer, and treated with 10^-6 M Aβ peptides for fifteen minutes. Following treatment with the Aβ peptides, the blood vessels were rinsed and again exposed to U46619. The values are expressed as percent of control constriction produced by U46619 alone.
The effect of pretreatment of coronary arteries with a single dose (10^-6 M) of A40 on acetylcholine induced relaxation is shown in FIG. 20. The blood vessel was preconstricted with 10^-7 M U46619 and relaxed with increasing doses of acetylcholine (10^-9 M to 10^-5 M).

[2] = system: bovine mid cerebral arteries; assay: Bovine mid cerebral artery contraction (U46619) and bradykinin vasodilation; details: 1 μM β-amyloid for 15 minutes
Description: Freshly dissected bovine mid cerebral arteries were cut into 3 mm rings and studied in tissue chamber as described earlier. Contraction of the blood vessel to the vasoconstrictor U46619 was studied before and after treatment with 1 μM β-amyloid for 15 minutes. […] (See FIG. 24).

β-amyloid
contraction of porcine coronary artery ([1]; increasing concentrations of amyloid peptide): dose dependent contraction
vasodilation caused by bradykinin after amyloid peptide ([1]; single dose of amyloid, increasing bradykinin): reduced the vasodilation caused by the bradykinin
vasoconstriction by U46619 after amyloid peptide ([1]; single dose of amyloid, preconstricted with U46619): significant increase in vasoconstriction
acetylcholine induced vasodilation after pretreatment (rat coronary arteries): significantly reduced the vasodilation induced by acetylcholine
contraction induced by U46619 after β-amyloid [2]: significantly increased
vasodilatory effect of bradykinin after β-amyloid [2]: markedly reduced
